Experimental data from patent US10301314B2, “Compounds and methods for the prevention and treatment of tumor metastasis and tumorigenesis” (The United States of America, as represented by the …, priority 2011, dated 2019).

Assays:
[1] = test system: PC3M reporter cell line stably expressing the PTB-GFP; experiment: ATP quantitation assay (ATPLite); type: cell-based, human; details: Homo sapiens, PC-3M, Table 4, PC3M cells, 24 hrs incubation
Experimental: This follow-up assay was conducted to measure the effect of compounds on cell health by measuring ATP levels (ATPLite™). ATPLite™ is an ATP monitoring system based on firefly (Photinus pyralis) luciferase. The level of ATP in a metabolically active cell is a general marker for its viability. ATP levels are often reduced during necrosis or apoptosis. In this assay, the luciferase enzyme catalyzes the conversion of the added substrate D-luciferin to oxyluciferin and light with ATP. Thus, the emitted light is proportional to the ATP concentration. For this assay, the highly metastatic PC3M reporter cell line stably expressing the PTB-GFP was provided by Professor Sui Huang of Northwestern University. The media and cell culture reagents were purchased from Invitrogen (Carlsbad, Calif.), ATPLite™ came from PerkinElmer.

[2] = test system: PC3M cell line that stably expresses GFP-PTB to mark PNCs; experiment: High content assay for PNC detection (reduction of PNC prevalence); type: cell-based, human; details: Table 4, PC3M GFP-PTB cells, 16 hrs incubation; for IC50: Homo sapiens, PC-3M
From the text: The quantitative output for this assay is the reduction of PNC prevalence. The PNC can be detected in living cells by the expression of a green fluorescent protein (GFP) tagged to the PNC localized protein, PTB. A PC3M cell line was used that stably expresses GFP-PTB to mark PNCs. This method eliminates the need for immunofluorescent staining.
The IN Cell Analyzer 1000 automated fluorescent imaging system (GE Healthcare, Piscataway, N.J.) was used for automated image acquisition. […] The instrument acquired images of each well in a 1536-well plate with a laser-based autofocus system. To score PNC prevalence in a high-content throughput, the Multi-Target Analysis (MTA) algorithm (GE Healthcare, Investigator v3.5) to identify individual cells and granules (PNCs) within these cells was used. The nucleus was segmented via a region growing method (50 μm^2 minimum area) with light shading and noise removal to allow “touching” nuclei to be separated. Granules in the nucleus (PNCs) were segmented using a multiscale top hat method, which measures granules of 1 to 2 μm in size and used a smart masking method to identify the boundaries of each segmented granule. The algorithm was optimized and validated using positive and negative controls (50 μM camptothecin and DMSO, respectively). In particular, the MTA algorithm allows for the identification of multiple subcellular compartments and organelles (or granules) within those compartments. In this instance, the algorithm's capability to identify objects within the same color channel that only differ in size or fluorescent intensity was utilized. Also, the algorithm allows for building complex hierarchical classification systems, using output measures within the algorithm to filter and define subpopulations. For this particular assay, PNC-positive cells were scored when 1 to 3 PNC granules were detected per nucleus. Cells that contained 0 granules were scored as PNC negative, and cells with >3 granules were assumed to be false positives (very few cells have more than 3 PNCs in one focus plane), and were also scored as PNC negative.

| Structure (SMILES) | IC50 [1] [µM] | IC50 [2] [µM] | PNC IC50(μM) [2] |
| --- | --- | --- | --- |
| COC(Cn1cnc2c(c(-c3ccccc3)c(-c3ccccc3)n2Cc2ccccc2)c1=N)OC | 38.3 | 5.9 | – |
| N=c1c2c(-c3ccccc3)c(-c3ccccc3)n(CCc3ccccc3)c2ncn1[C@H]1CC[C@H](O)CC1 [Compound 3] | 9.61 | 0.047 | – |
| N=c1c2c(-c3ccccc3)c(-c3ccccc3)n(Cc3ccccc3)c2ncn1CCO [Compound 4] | 76.4 | 0.118 | – |
| N=c1c2c(-c3ccccc3)c(-c3ccccc3)n(CCc3ccccc3)c2ncn1CCO [Compound 5] | 19.2 | 0.187 | – |
| COc1ccc(Cn2c(-c3ccccc3)c(-c3ccccc3)c3c(=N)n(CCO)cnc32)cc1 [Compound 6] | 48.2 | 1.48 | – |
| N=c1c2c(-c3ccccc3)c(-c3ccccc3)n(Cc3ccco3)c2ncn1CCO [Compound 7] | 20.4 | 0.628 | – |
| N=c1c2c(-c3ccccc3)c(-c3ccccc3)n(CCc3ccccc3)c2ncn1CCCO [Compound 9] | 19.2 | 0.148 | – |
| N=c1c2c(-c3ccccc3)c(-c3ccccc3)n(Cc3ccco3)c2ncn1CCCO [Compound 11] | 64.6 | 3.97 | – |
| N=c1c2c(-c3ccccc3)c(-c3ccccc3)n(Cc3ccccc3)c2ncn1CCCCO [Compound 12] | 24.1 | – | inactive |
| N=c1c2c(-c3ccccc3)c(-c3ccccc3)n(CCc3ccccc3)c2ncn1CCCCO [Compound 13] | 15.2 | 0.235 | – |
| COc1ccc(Cn2c(-c3ccccc3)c(-c3ccccc3)c3c(=N)n(CCCCCO)cnc32)cc1 [Compound 14] | 24.1 | 1.18 | – |
| N=c1c2c(-c3ccccc3)c(-c3ccccc3)n(Cc3ccccc3)c2ncn1CCCCCO [Compound 15] | 24.1 | 0.372 | – |
| N=c1c2c(-c3ccccc3)c(-c3ccccc3)n(CCc3ccccc3)c2ncn1CCCCCO [Compound 16] | 38.3 | 0.59 | – |
| COc1ccc(Cn2c(-c3ccccc3)c(-c3ccccc3)c3c(=N)n(CCCCO)cnc32)cc1 [Compound 17] | 30.4 | 1.18 | – |
| N=c1c2c(-c3ccccc3)c(-c3ccccc3)n(Cc3ccccc3)c2ncn1CCN [Compound 18] | 76.4 | – | inactive |
| CN(C)CCn1cnc2c(c(-c3ccccc3)c(-c3ccccc3)n2Cc2ccccc2)c1=N [Compound 19] | 24.1 | 0.935 | – |
| CN(C)CCn1cnc2c(c(-c3ccccc3)c(-c3ccccc3)n2CCc2ccccc2)c1=N [Compound 20] | 96.1 | 0.469 | – |
| CN(C)CCCn1cnc2c(c(-c3ccccc3)c(-c3ccccc3)n2Cc2ccccc2)c1=N [Compound 21] | 24.1 | 7.43 | – |
| CN(C)CCCn1cnc2c(c(-c3ccccc3)c(-c3ccccc3)n2CCc2ccccc2)c1=N [Compound 22] | 24.1 | 7.43 | – |
| N=c1c2c(-c3ccccc3)c(-c3ccccc3)n(Cc3ccccc3)c2ncn1C1CCN(Cc2ccccc2)CC1 [Compound 23] | 121 | 4.69 | – |
| N=c1c2c(-c3ccccc3)c(-c3ccccc3)n(CCc3ccccc3)c2ncn1C1CCN(Cc2ccccc2)CC1 [Compound 24] | 24.1 | 1.87 | – |
| COCCn1cnc2c(c(-c3ccccc3)c(-c3ccccc3)n2Cc2ccccc2)c1=N [Compound 25] | 60.7 | 1.87 | – |
| COCCn1cnc2c(c(-c3ccccc3)c(-c3ccccc3)n2CCc2ccccc2)c1=N [Compound 26] | 60.7 | 3.72 | – |
| COCCn1cnc2c(c(-c3ccccc3)c(-c3ccccc3)n2Cc2ccc(OC)cc2)c1=N [Compound 27] | 24.1 | 1.18 | – |
| COC(Cn1cnc2c(c(-c3ccccc3)c(-c3ccccc3)n2CCc2ccccc2)c1=N)OC [Compound 29] | 27.1 | 23.5 | – |
| COc1ccc(Cn2c(-c3ccccc3)c(-c3ccccc3)c3c(=N)n(CC(OC)OC)cnc32)cc1 [Compound 30] | 24.1 | 5.9 | – |
